# Laboratory results published in patent US20260125374A1, “PI3K-ALPHA INHIBITORS AND METHODS OF MAKING AND USING THE SAME” (Relay Therapeutics, Inc., priority 2021, published 2026).
# Marks after values point to notes of the source that are not given here.
# Assay: Polymorph screening (equilibration, anti-solvent, slow evaporation, slow cooling, temperature cycling, heating-cooling; XRPD and SFC)
# Format: physicochemical
# Experimental: This polymorph screening program of compound I-1 free form was performed with two batches of the pure enantiomer. Both batches are crystalline and is assigned as Form A. The polymorphic behaviors of the enantiomer were investigated by equilibration at 25° C. and 50° C., equilibration under a temperature cycle, crystallization from hot saturated solutions by slow cooling, slow evaporation, precipitation by addition of anti-solvent, and DSC heating-cooling cycle experiments. Relative stability of identified polymorphs was investigated by competitive slurry experiments.
# (§1) About 50 mg of I-1 Form A was weighed into a 2 mL glass vial and equilibrated in suitable amount of solvents (pretreated by molecular sieves) at 25° C. for 2 weeks with a stirring plate and with protection from light. Obtained suspensions were filtered with 0.45 μm nylon membrane and the solid parts (wet cake) were investigated by XRPD. When differences were observed, additional investigations were performed (e.g. DSC, TGA, ^1H-NMR, SFC).
# as §1, with “into” for “into a”, “vials” for “vial”, “50°” for “25°”, “10 days” for “2 weeks”, “investigation was” for “investigations were”
# I-1 Form A was dissolved in a good solvent. […] The solvents used were pretreated by molecular sieve. Precipitates were collected by filtration. The solid part (wet cake) was investigated by XRPD. […] When differences were observed, additional investigations were performed (e.g. DSC, TGA, ^1H-NMR, SFC).
# Based on approximate solubility results, I-1 Form A was dissolved in suitable amount of solvents (pretreated by molecular sieves). Obtained solutions were filtered by 0.45 μm nylon filter. […] Solid residues were examined for their polymorphic form. When differences were observed, additional investigations were performed (e.g. DSC, TGA, ^1H-NMR, SFC).
# Approximate 50 mg of batch I-1 Form A were dissolved in the minimal amount of selected solvents (without pretreatment by molecular sieves) at 50° C. Obtained solutions were filtered by 0.45 μm nylon filter. […] Precipitates were collected by filtration. The solid parts (wet cake) were investigated by XRPD. When differences were observed, additional investigations were performed (e.g. DSC, TGA, ^1H-NMR, SFC). When no precipitation was obtained or only a few solids were obtained, the solutions were placed at 5° C. for crystallization.
# About 50 mg of I-1 Form A was equilibrated in different solvents (pretreated by molecular sieves) under a temperature cycle between 5° C. to 50° C. at a heating/cooling rate of 0.2° C./min for 10 cycles and with protection from light. After 10 cycles, precipitates were collected at 5° C. by filtration. The solid parts (wet cake) were investigated by XRPD. When differences were observed, additional investigations were performed (e.g. DSC, TGA, 1H-NMR, SFC).
# Polymorphic behavior of I-1 Form A was investigated by two different heating-cooling cycles of DSC. Cycle 1:30° C. to 280° C. at 10° C./min; 280° C. to −20° C. at 20° C./min; reheat to 300° C. at 10° C./min. Cycle 2:30° C. to 280° C. at 10° C./min; 280° C. to-20° C. at 2° C./min; reheat to 300° C. at 10° C./min.
# [1] = anti-solvent Acetone / Heptane(2V), added III-1 Form D seeds, stirred for 1 h
# [2] = anti-solvent MeOH / Water(0.1V), III-1 Form A seeds, stirred for 2 days
# [3] = anti-solvent THF / MTBE(1.5V), added I-1 Form C seeds, stirred for 2 h
compound,measurement,setting,value
"N#Cc1c(-c2cc(NC(=O)c3cc(F)cc(C(F)(F)F)c3)c3c(c2)C(=O)N[C@H]3c2cc(F)ccc2Cl)ccc2ncnn12 [Compound I-1, (R)-N-(3-(2-chloro-5-fluorophenyl)-6-(5-cyano-[1,2,4]triazolo[1,5-a]pyridin-6-yl)-1-oxoisoindolin-4-yl)-3-fluoro-5-(trifluoromethyl)benzamide]",XRPD,[1],I-1 Form A
same,ee %(SFC),[1],ee %(SFC): 94.9%*
same,ee %(SFC),"anti-solvent MeOH / Water(0.1V), III-1 Form A seeds, stirred for 2 h",ee %(SFC): 98.8%*
same,XRPD,[2],I-1 Form A
same,ee %(SFC),[2],ee %(SFC): 99.2%*
same,XRPD,[3],I-1 Form C
same,ee %(SFC),[3],ee %(SFC): 99.5%*
same,XRPD,anti-solvent precipitation at 25° C.: Acetone / Heptane(2V),I-1 Form A
same,XRPD,anti-solvent precipitation at 25° C.: Acetone / MTBE(4V),I-1 Form A
same,XRPD,"anti-solvent precipitation at 25° C.: MeOH / MTBE(4V), stirred at 25° C. for 23 days",I-1 Form E
same,Comments (outcome),anti-solvent precipitation at 25° C.: MeOH / Toluene(4V),Clear solution
same,XRPD,anti-solvent precipitation at 25° C.: THF / Heptane(1.5V),I-1 Form C
same,XRPD,anti-solvent precipitation at 25° C.: THF / MTBE(4V),I-1 Form C
same,ee %(SFC),"anti-solvent precipitation: MeOH / MTBE(4V), stirred at 25° C. for 23 days, SFC immediately after preparation",ee % (SFC): 2.7%*
same,ee %(SFC),"anti-solvent precipitation: THF / MTBE(4V), SFC immediately after preparation",ee % (SFC): 100.0%*
same,racemization in organic solvents (free form polymorph study),"certain organic solvents, including methanol and IPAc",easily racemized
same,XRPD,"equilibration at 25° C. for 2 weeks in 1,4-Dioxane",I-1 Form A
same,XRPD,equilibration at 25° C. for 2 weeks in 2-MeTHF,I-1 Form A
same,XRPD,"equilibration at 25° C. for 2 weeks in ACN/water(90:10, v/v) a.w. 0.9",I-1 + I-2 mixture
same,ee %(SFC),"equilibration at 25° C. for 2 weeks in ACN/water(90:10, v/v), SFC immediately after preparation",ee % (SFC): 89.6%*
same,XRPD,equilibration at 25° C. for 2 weeks in Acetone,I-1 + I-2 mixture
same,XRPD,"equilibration at 25° C. for 2 weeks in Acetone/water(60:40, v/v) a.w. 0.8",I-1 + I-2 mixture
same,XRPD,equilibration at 25° C. for 2 weeks in Acetonitrile,I-1 Form A
same,XRPD,equilibration at 25° C. for 2 weeks in Benzyl alcohol,I-1 Form A
same,XRPD,equilibration at 25° C. for 2 weeks in Dichloromethane,I-1 Form A
same,XRPD,equilibration at 25° C. for 2 weeks in Ethanol,I-1 Form A
same,XRPD,equilibration at 25° C. for 2 weeks in Ethyl acetate,I-1 Form A
same,XRPD,equilibration at 25° C. for 2 weeks in Isopropyl acetate,I-1 Form A
same,XRPD,"equilibration at 25° C. for 2 weeks in MeOH/water(55:45, v/v) a.w. 0.7",I-1 Form A
same,XRPD,equilibration at 25° C. for 2 weeks in Methanol,I-1 + I-2 mixture
same,XRPD,equilibration at 25° C. for 2 weeks in Methyl ethyl ketone,I-1 Form A
same,XRPD,"equilibration at 25° C. for 2 weeks in THF/water(85:15, v/v) a.w. 0.9, target concentration 510 mg/mL",III-1 Form B
same,XRPD,equilibration at 25° C. for 2 weeks in Tetrahydrofuran,I-1 Form A
same,XRPD,equilibration at 25° C. for 2 weeks in Water,I-1 + I-2 mixture
same,XRPD,equilibration at 25° C. for 2 weeks in t-Butyl methyl ether,I-1 Form A
same,XRPD (4 days),"equilibration at 25° C. in THF/water(85:15, v/v) a.w. 0.9, added III-1 Form B seeds",I-1 + II-1 mixture
same,ee %(SFC),"equilibration at 25° C. in THF/water(85:15, v/v), 4 days, added III-1 Form B seeds",ee %(SFC): 93.8%*
same,XRPD,"equilibration at 50° C. for 10 days in 1,4-Dioxane",I-1 Form B
same,ee %(SFC),"equilibration at 50° C. for 10 days in 1,4-Dioxane, SFC immediately after preparation",ee % (SFC): 100.0%*
same,XRPD,"equilibration at 50° C. for 10 days in ACN/water(80:20, v/v) a.w. 0.9",III-1 Form A
same,ee %(SFC),"equilibration at 50° C. for 10 days in ACN/water(80:20, v/v), SFC immediately after preparation",ee % (SFC): 50.7%*
same,XRPD,equilibration at 50° C. for 10 days in Acetone,I-1 Form A
same,XRPD,"equilibration at 50° C. for 10 days in Acetone/water(60:40, v/v) a.w. 0.8",III-1 Form C
same,ee %(SFC),"equilibration at 50° C. for 10 days in Acetone/water(60:40, v/v), SFC immediately after preparation",ee % (SFC): 56.9%*
same,XRPD,equilibration at 50° C. for 10 days in Acetonitrile,I-1 Form A
same,XRPD,equilibration at 50° C. for 10 days in Anisole,I-1 Form A
same,XRPD,"equilibration at 50° C. for 10 days in EtOH/water(50:50, v/v) a.w. 0.9",III-1 Form A
same,ee %(SFC),"equilibration at 50° C. for 10 days in EtOH/water(50:50, v/v), SFC after preparation for about 12 h",ee % (SFC): 75.0%#;
same,ee %(SFC),"equilibration at 50° C. for 10 days in EtOH/water(50:50, v/v), SFC immediately after preparation","ee % (SFC): 76.9%*,"
same,XRPD,equilibration at 50° C. for 10 days in Ethanol,I-1 Form A
